± gives the standard deviation of the averaged measurements.
Assays:
LENVATINIB = compound: COc1cc2nccc(Oc3ccc(NC(=O)NC4CC4)c(Cl)c3)c2cc1C(N)=O [LENVATINIB]; assay: surviving fraction relative to DMSO-only wells; higher = less growth inhibition; conditions: exposure time: 5 days
Summary of the method: (§1)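 Viability values are CellTiter-Glo luminescence readings, given as surviving fraction against the median of DMSO-only wells. The readings were taken after 10 minutes at room temperature, following five days of continuous exposure to inhibitors at 0.5, 1, 5, 10, 50, 100, 500 and 1000 nM that began 24 hours after log-phase tumour cell lines were seeded at 250–500 cells per well in 384-well plates. Every line was screened three times and kept only if replicate Pearson r >0.7 and median Z' >0.3.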

BMN-673 = compound: Cn1ncnc1[C@H]1c2n[nH]c(=O)c3cc(F)cc(c23)N[C@@H]1c1ccc(F)cc1 [BMN-673]; assay: as above; conditions: exposure time: 5 days
Summary of the method: as §1

HS57T BREAST was tested, and the surviving fraction (LENVATINIB; 0.5 nM) was 1.04 ± 0.027, the surviving fraction (LENVATINIB; 1 nM) was 1.01 ± 0.085 and the surviving fraction (LENVATINIB; 5 nM) was 1.084 ± 0.0086. For the same test system, the surviving fraction (LENVATINIB; 10 nM) was 1.14 ± 0.049, the surviving fraction (LENVATINIB; 50 nM) was 1.1 ± 0.042 and the surviving fraction (LENVATINIB; 100 nM) was 1.09 ± 0.064. For the same test system, the surviving fraction (LENVATINIB; 500 nM) was 0.831 ± 0.029, the surviving fraction (LENVATINIB; 1000 nM) was 0.74 ± 0.023 and the surviving fraction (BMN-673; 0.5 nM) was 1.04 ± 0.03. The surviving fraction (BMN-673; 1 nM) was 0.984 ± 0.037, the surviving fraction (BMN-673; 5 nM) was 1.04 ± 0.076 and the surviving fraction (BMN-673; 10 nM) was 1.03 ± 0.076. The surviving fraction (BMN-673; 50 nM) was 0.969 ± 0.084, the surviving fraction (BMN-673; 100 nM) was 0.82 ± 0.074 and the surviving fraction (BMN-673; 500 nM) was 0.619 ± 0.057. It also gave a surviving fraction (BMN-673; 1000 nM) of 0.513 ± 0.04.

In the case of G292 BONE, the surviving fraction (LENVATINIB; 0.5 nM) is reported as 0.99 ± 0.053, the surviving fraction (LENVATINIB; 1 nM) is reported as 0.993 ± 0.054 and the surviving fraction (LENVATINIB; 5 nM) is reported as 1.02 ± 0.065. For the same test system, the surviving fraction (LENVATINIB; 10 nM) was 0.961 ± 0.019, the surviving fraction (LENVATINIB; 50 nM) was 0.838 ± 0.027 and the surviving fraction (LENVATINIB; 100 nM) was 0.725 ± 0.013. For the same test system, the surviving fraction (LENVATINIB; 500 nM) was 0.33 ± 0.017, the surviving fraction (LENVATINIB; 1000 nM) was 0.203 ± 0.0041 and the surviving fraction (BMN-673; 0.5 nM) was 1.02 ± 0.058. The surviving fraction (BMN-673; 1 nM) was 0.933 ± 0.033, the surviving fraction (BMN-673; 5 nM) was 0.923 ± 0.041 and the surviving fraction (BMN-673; 10 nM) was 0.846 ± 0.048. The surviving fraction (BMN-673; 50 nM) was 0.732 ± 0.045, the surviving fraction (BMN-673; 100 nM) was 0.698 ± 0.016 and the surviving fraction (BMN-673; 500 nM) was 0.54 ± 0.035. It also gave a surviving fraction (BMN-673; 1000 nM) of 0.459 ± 0.015.

CCK81 LARGE INTESTINE showed a surviving fraction (BMN-673; 0.5 nM) of 0.838 ± 0.087, a surviving fraction (BMN-673; 1 nM) of 0.781 ± 0.094 and a surviving fraction (BMN-673; 5 nM) of 0.733 ± 0.091. The surviving fraction (BMN-673; 10 nM) was 0.619 ± 0.092, the surviving fraction (BMN-673; 50 nM) was 0.54 ± 0.034 and the surviving fraction (BMN-673; 100 nM) was 0.552 ± 0.03. For the same test system, the surviving fraction (BMN-673; 500 nM) was 0.493 ± 0.079 and the surviving fraction (BMN-673; 1000 nM) was 0.406 ± 0.058.

Test System HMLE3 BREAST has a surviving fraction (LENVATINIB; 0.5 nM) of 1.03 ± 0.019, a surviving fraction (LENVATINIB; 1 nM) of 0.951 ± 0.054 and a surviving fraction (LENVATINIB; 5 nM) of 1.03 ± 0.052. It also gave a surviving fraction (LENVATINIB; 10 nM) of 1.05 ± 0.09, a surviving fraction (LENVATINIB; 50 nM) of 0.998 ± 0.12 and a surviving fraction (LENVATINIB; 100 nM) of 0.905 ± 0.096. It also gave a surviving fraction (LENVATINIB; 500 nM) of 0.718 ± 0.029, a surviving fraction (LENVATINIB; 1000 nM) of 0.658 ± 0.047 and a surviving fraction (BMN-673; 0.5 nM) of 1.08 ± 0.048. The surviving fraction (BMN-673; 1 nM) was 1.11 ± 0.053, the surviving fraction (BMN-673; 5 nM) was 1 ± 0.2 and the surviving fraction (BMN-673; 10 nM) was 0.902 ± 0.1. It also gave a surviving fraction (BMN-673; 50 nM) of 0.644 ± 0.035, a surviving fraction (BMN-673; 100 nM) of 0.604 ± 0.03 and a surviving fraction (BMN-673; 500 nM) of 0.339 ± 0.056. For the same test system, the surviving fraction (BMN-673; 1000 nM) was 0.277 ± 0.036.

In the case of HMT3552 BREAST, the surviving fraction (LENVATINIB; 0.5 nM) is reported as 1.03, the surviving fraction (LENVATINIB; 1 nM) is reported as 0.978 and the surviving fraction (LENVATINIB; 5 nM) is reported as 1.01. The surviving fraction (LENVATINIB; 10 nM) was 0.921, the surviving fraction (LENVATINIB; 50 nM) was 0.975 and the surviving fraction (LENVATINIB; 100 nM) was 1.02. For the same test system, the surviving fraction (LENVATINIB; 500 nM) was 0.944, the surviving fraction (LENVATINIB; 1000 nM) was 0.893 and the surviving fraction (BMN-673; 0.5 nM) was 1.01 ± 0.064. It also gave a surviving fraction (BMN-673; 1 nM) of 0.943 ± 0.036, a surviving fraction (BMN-673; 5 nM) of 0.889 ± 0.047 and a surviving fraction (BMN-673; 10 nM) of 0.775 ± 0.073. For the same test system, the surviving fraction (BMN-673; 50 nM) was 0.713 ± 0.063, the surviving fraction (BMN-673; 100 nM) was 0.574 ± 0.01 and the surviving fraction (BMN-673; 500 nM) was 0.375 ± 0.026. It also gave a surviving fraction (BMN-673; 1000 nM) of 0.264 ± 0.0075.

HCC70 BREAST gave a surviving fraction (LENVATINIB; 0.5 nM) of 1.12 ± 0.07, a surviving fraction (LENVATINIB; 1 nM) of 1.136 ± 0.004 and a surviving fraction (LENVATINIB; 5 nM) of 1.08 ± 0.067. It also gave a surviving fraction (LENVATINIB; 10 nM) of 1.15 ± 0.013, a surviving fraction (LENVATINIB; 50 nM) of 1.27 ± 0.1 and a surviving fraction (LENVATINIB; 100 nM) of 1.13 ± 0.056. The surviving fraction (LENVATINIB; 500 nM) was 1.054 ± 0.0066, the surviving fraction (LENVATINIB; 1000 nM) was 1.23 ± 0.09 and the surviving fraction (BMN-673; 0.5 nM) was 1.05 ± 0.11. For the same test system, the surviving fraction (BMN-673; 1 nM) was 1.05 ± 0.11, the surviving fraction (BMN-673; 5 nM) was 1.12 ± 0.069 and the surviving fraction (BMN-673; 10 nM) was 0.977 ± 0.065. It also gave a surviving fraction (BMN-673; 50 nM) of 0.789 ± 0.054, a surviving fraction (BMN-673; 100 nM) of 0.657 ± 0.074 and a surviving fraction (BMN-673; 500 nM) of 0.411 ± 0.1. For the same test system, the surviving fraction (BMN-673; 1000 nM) was 0.341 ± 0.022.

HS578T BREAST showed a surviving fraction (LENVATINIB; 0.5 nM) of 0.934 ± 0.11, a surviving fraction (LENVATINIB; 1 nM) of 1.16 ± 0.058 and a surviving fraction (LENVATINIB; 5 nM) of 0.871 ± 0.17. It also gave a surviving fraction (LENVATINIB; 10 nM) of 0.974 ± 0.041, a surviving fraction (LENVATINIB; 50 nM) of 0.984 ± 0.078 and a surviving fraction (LENVATINIB; 100 nM) of 0.91 ± 0.068. For the same test system, the surviving fraction (LENVATINIB; 500 nM) was 1.01 ± 0.1, the surviving fraction (LENVATINIB; 1000 nM) was 0.871 ± 0.045 and the surviving fraction (BMN-673; 0.5 nM) was 1.02 ± 0.035. For the same test system, the surviving fraction (BMN-673; 1 nM) was 1.14 ± 0.14, the surviving fraction (BMN-673; 5 nM) was 1.05 ± 0.091 and the surviving fraction (BMN-673; 10 nM) was 0.958 ± 0.12. For the same test system, the surviving fraction (BMN-673; 50 nM) was 0.902 ± 0.075, the surviving fraction (BMN-673; 100 nM) was 0.841 ± 0.043 and the surviving fraction (BMN-673; 500 nM) was 0.669 ± 0.076. The surviving fraction (BMN-673; 1000 nM) was 0.61 ± 0.087.

HCC38 BREAST showed a surviving fraction (LENVATINIB; 0.5 nM) of 1.03 ± 0.056, a surviving fraction (LENVATINIB; 1 nM) of 1.19 ± 0.23 and a surviving fraction (LENVATINIB; 5 nM) of 1.24 ± 0.24. It also gave a surviving fraction (LENVATINIB; 10 nM) of 1.19 ± 0.091, a surviving fraction (LENVATINIB; 50 nM) of 1.35 ± 0.052 and a surviving fraction (LENVATINIB; 100 nM) of 1.28 ± 0.054. It also gave a surviving fraction (LENVATINIB; 500 nM) of 1.18 ± 0.091, a surviving fraction (LENVATINIB; 1000 nM) of 1.09 ± 0.17 and a surviving fraction (BMN-673; 0.5 nM) of 1.06 ± 0.11. For the same test system, the surviving fraction (BMN-673; 1 nM) was 0.92 ± 0.2, the surviving fraction (BMN-673; 5 nM) was 0.778 ± 0.14 and the surviving fraction (BMN-673; 10 nM) was 0.603 ± 0.11. For the same test system, the surviving fraction (BMN-673; 50 nM) was 0.585 ± 0.084, the surviving fraction (BMN-673; 100 nM) was 0.43 ± 0.065 and the surviving fraction (BMN-673; 500 nM) was 0.301 ± 0.046. The surviving fraction (BMN-673; 1000 nM) was 0.253 ± 0.031.

— the supplement of paper PMC6045584
